# Measured values as given in patent publication US20190380957A1, “Protein Hydrogels For Treatment Of Neovascular Disease” (New Jersey Institute of Technology, priority 2018, published 2019).
# How the values were obtained:
# [1] = test system: human umbilical vein endothelial cells (HUVECs); test: Tube formation assay; type: cell-based; settings: positive control, 1.8 mM suramin in media
# Protocol: To assay the anti-angiogenic effect of the self-assembled peptide on endothelial cells, tube formation assays were performed for a range of peptide concentrations. This assay captures the propensity of human ECs or HUVECs to form capillary-like tubules. The process is sensitive to the presence of anti-angiogenic compounds. HUVECs were seeded along with varying concentrations of SL-Kr5 solution on a basement membrane extract matrix to stimulate the formation of capillary tubules. The effects of the peptide on the HUVECs were characterized by measuring the extent of tube formation in terms of total length of tubules formed, number of segments, number of branches, number of junctions, number of nodes, and […] (FIGS. 8A-8F, FIGS. 9A-9D). […]
# Tube Formation Assay: HUVECs (Lonza) were cultured in T75 flasks using an Endothelial Cell Growth Medium BulletKit (Lonza). […] The negative control was supplemented with 298 mM sucrose to match the corresponding highest quantity added to the test conditions, and the positive control contained 1.8 mM suramin. The 96-well plate was then incubated at 37° C. for 4 to 6 hours before imaging on a Nikon Instruments Eclipse Ti-S inverted fluorescence microscope. Tube length was quantified using NIH ImageJ software.
# Female Wistar rats = test: In vivo subcutaneous implantation, histology; set-up: species or system rat; settings: 200 μL SC implant
# [2] = In vitro cytocompatibility (LIVE/DEAD viability/cytotoxicity kit); type: cell-based; settings: mouse, NIH 3T3 fibroblasts; 800 μM SL-Kr5 in media, day 3; control 85-90%, p<0.05; read-out: viability of cells
# Protocol: (§1) Cytocompatibility was determined by fibroblast cultures treated with increasing concentrations of the peptide in culture media.
# (§2) In Vitro Cytocompatibility: NIH 3T3 fibroblasts were cultured in media (Dulbecco's Modified Eagle Medium supplemented with 10% fetal bovine serum and 1% 100× penicillin streptomycin) in T75 flasks. After the cells reached confluency, they were seeded in a 96-well plate at 2,500 cells/well. Three target conditions (800 μM, 80 μM, and […]; n=6) and a control (media with sucrose; n=6) were tested. For target conditions, the peptide was supplemented in the media, and for the media control, 298 mM sucrose (formulation carrier) was added. Media was changed daily and cytocompatibility was assessed on day 3 using a LIVE/DEAD® viability/cytotoxicity kit. Images were taken on a Nikon Instruments Eclipse Ti-S inverted fluorescence microscope, and cell viability was quantified using NIH ImageJ, a known image analysis and processing software program.
# NIH 3T3 fibroblasts = test: as above; type: cell-based; settings: for cytocompatibility compared to the media+sucrose control: day 3
# Protocol: as §1, §2
# endothelial cells = settings: previously shown; cited from earlier work
# [3] = target: GRP78 (glucose-regulated protein 78) (Homo sapiens, UniProt P11021); settings: previously shown; cited from earlier work
# [4] = cited from earlier work
# Sequence of GRP78 (glucose-regulated protein 78) (P11021 19-654, species assumed): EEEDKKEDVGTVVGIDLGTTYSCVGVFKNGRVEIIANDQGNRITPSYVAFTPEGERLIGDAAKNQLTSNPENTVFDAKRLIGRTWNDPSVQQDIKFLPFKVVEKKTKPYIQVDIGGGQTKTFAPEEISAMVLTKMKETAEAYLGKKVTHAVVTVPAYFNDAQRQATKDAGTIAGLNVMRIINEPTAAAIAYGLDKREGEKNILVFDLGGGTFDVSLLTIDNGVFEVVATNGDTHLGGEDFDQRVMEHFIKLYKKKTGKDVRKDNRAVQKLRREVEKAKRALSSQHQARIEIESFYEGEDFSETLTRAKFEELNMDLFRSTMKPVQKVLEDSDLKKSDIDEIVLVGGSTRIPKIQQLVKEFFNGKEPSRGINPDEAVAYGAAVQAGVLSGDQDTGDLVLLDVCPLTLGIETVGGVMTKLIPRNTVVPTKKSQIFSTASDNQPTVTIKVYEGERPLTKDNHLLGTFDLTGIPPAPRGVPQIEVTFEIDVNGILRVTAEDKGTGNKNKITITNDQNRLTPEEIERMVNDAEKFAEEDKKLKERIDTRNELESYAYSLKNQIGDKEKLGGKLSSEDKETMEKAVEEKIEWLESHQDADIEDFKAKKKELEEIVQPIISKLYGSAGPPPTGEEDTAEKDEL
molecule,measurement,setting,value
Cc1ccc(C(=O)Nc2ccc(S(=O)(=O)O)c3cc(S(=O)(=O)O)cc(S(=O)(=O)O)c23)cc1NC(=O)c1cccc(NC(=O)Nc2cccc(C(=O)Nc3cc(C(=O)Nc4ccc(S(=O)(=O)O)c5cc(S(=O)(=O)O)cc(S(=O)(=O)O)c45)ccc3C)c2)c1 [suramin],EC tube formation,[1],inhibited
"Ac-KSLSLSLSLSLSLKGPRKLYDY-NH2 [SL-Kr5, K-(SL)6-K-G-PRKLYDY]",fibrous capsule,Female Wistar rats,no fibrous capsule apparent
same,"viability at 72 h, 800 µM",[2],55%
same,cytocompatibility compared to the media+sucrose control,NIH 3T3 fibroblasts; 8 μM SL-Kr5 in media,little to no difference
same,cytocompatibility compared to the media+sucrose control,NIH 3T3 fibroblasts; 80 μM SL-Kr5 in media,little to no difference
same,non-specific toxicity in stromal cells,"NIH 3T3 fibroblasts; fibroblast cultures, increasing peptide concentrations",did not induce non-specific toxicity
same,cellular proliferation versus controls,NIH 3T3 fibroblasts; over a range of concentrations,comparable cellular proliferation to controls
PRKLYDY (Kr5),apoptosis of endothelial cells,endothelial cells,induce apoptosis
same,attachment to GRP78,[3],can attach
K2(SL)6K2,basal level of angiogenesis,[4]; no VEGF mimic,strong basal level of angiogenesis
same,in vivo biodegradation time,[4]; slow biodegradation,6 weeks
